Test [1] deals with IgE production. The experiment in a line: Test 4: inhibition of IgE production by spleen cells of orally treated sensitized mice. As to conditions: Mus musculus, po, 100 mg/kg orally once a day, Day 1 to Day 10, DNP-BSA 5 μg/ml, 24 hours, read-out: Inhibition rate of IgE production. In kind it is in vivo, Balb/c mouse. The protocol: (§1) Test 4: Test on the inhibition of IgE production
(§2) To a Balb/c mouse, the DNP-labeled ascaris antigen (5 μg) and Alum (1 mg) were intraperitoneally administered on Day 1 and Day 6 to sensitize the mouse with the antibody. From Day 1 to Day 10, a medicament was orally administered at a dose of 100 mg/kg once a day. On Day 11, the mouse was subjected to splenectomy and the spleen so obtained was untangled into its cells. To 5×10^7 cells/ml of the spleen cells so obtained, DNP-BSA (5 μg/ml) was added, followed by incubation at 37° C. for 24 hours. After incubation, 100 μl of the supernatant were collected and subjected to the measurement an IgE measuring kit (Yamasa Co., Ltd.). In order to determine IgG1, IgG2a and IgM, the absorbance of the incubated supernatant was measured by the EIA method and provided for comparison. The inhibition rate of IgE production was calculated according to the below-described formula. Inhibition rates of the IgG1, IgG2a and IgM production were similarly calculated, respectively. [formula]

In test [2] the test system is IgG2a production. Nature of the test: Test 4 (comparison): inhibition of IgG2a production. It counts as in vivo, Balb/c mouse. The following applies: Mus musculus, po; 100 mg/kg orally once a day, Day 1 to Day 10; spleen cells, DNP-BSA 5 μg/ml, 24 hours; read-out: Inhibition rate of IgG2a production. The method, then: as §1, §2
The subject of test [3] is IL-5 production. The experiment in a line: Test 3: inhibition of IL-5 production in human PBMC stimulated with ConA. As to conditions: 10^-6 M, 10 μg/ml ConA, 48 hours, read-out: Inhibition rate of IL-5 production. In kind it is cell-based. The essentials:
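Human PBMC from a normal volunteer, 1×10^6 cells/ml in AIM-V, stimulated with 10 μg/ml ConA alongside compound and incubated 48 h at 37 °C, 5% CO2. Supernatant IL-5 quantified by EIA; inhibition rate calculated from a formula.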

Test [4] concerns IgM production. Nature of the test: Test 4 (comparison): inhibition of IgM production. In kind it is in vivo, Balb/c mouse. As to conditions: Mus musculus, po; 100 mg/kg orally once a day, Day 1 to Day 10; spleen cells, DNP-BSA 5 μg/ml, 24 hours; read-out: Inhibition rate of IgM production. The protocol: as §1, §2
Test [5] has as its system IL-4 production. Nature of the test: Test 1: inhibition of IL-4 production in human T-cell strain ATL-16T(-) stimulated with PMA (R&D Systems EIA). It counts as cell-based. As to conditions: ATL-16T(-) 1×10^6 cells/0.5 ml/well, 20 nM PMA, 48 hours, read-out: Inhibition rate of IL-4 production; for inhibition at 10 µM: 10^-5 M; for inhibition at 1 µM: 10^-6 M; for inhibition at 0.1 µM: 10^-7 M; for inhibition at 0.01 µM: 10^-8 M. The protocol:
Test 1: Test on the inhibition of IL-4 production
Into individual wells of a 48-well microplate, the human T-cell strain ATL-16T(-) was poured at a concentration of 1×10^6 cells/0.5 ml/well (n=3), followed by the addition of a stimulator (20 nM of PMA) and a medicament at the same time. The resulting mixture was incubated in 5% CO2 at 37° C. for 48 hours. After incubation, 100 μl of the supernatant were collected and subjected to measurement by a human IL-4 EIA kit (R&D SYSTEMS, INC.). The inhibition rate was calculated according to the following formula. [formula]

Test [6] concerns IgG1 production. The experiment in a line: Test 4 (comparison): inhibition of IgG1 production. The following applies: Mus musculus, po; 100 mg/kg orally once a day, Day 1 to Day 10; spleen cells, DNP-BSA 5 μg/ml, 24 hours; read-out: Inhibition rate of IgG1 production. It counts as in vivo, Balb/c mouse. The protocol:
as §1, §2

Test [7] deals with IL-4 production. Nature of the test: Test 2: inhibition of IL-4 production in human T-cell strain ATL-16T(-) stimulated with PMA (Bio Source EIA). It counts as cell-based. The following applies: ATL-16T(-) 5×10^5 cells/0.5 ml/well, 20 nM PMA, 48 hours, read-out: Inhibition rate of IL-4 production; for inhibition at 10 µM: 10^-5 M; for inhibition at 1 µM: 10^-6 M; for inhibition at 0.1 µM: 10^-7 M; for inhibition at 0.01 µM: 10^-8 M. The method, then:
Test 2: Test on the inhibition of IL-4 production
Into individual wells of a 48-well microplate, the human T-cell strain ATL-16T(-) was poured at a concentration of 5×10^5 cells/0.5 ml/well (n=3), followed by the addition of a stimulator (20 nM of PMA) and a medicament at the same time. The resulting mixture was incubated in 5% CO2 at 37° C. for 48 hours. After incubation, 50 μl of the supernatant were collected and subjected to measurement by a human IL-4 EIA kit (BIO SOURCE, INC.). The inhibition rate was calculated according to the following formula. [formula]

Counter-ions that a name gives are not always drawn.

The term inhibition denotes the relative decrease from the control value, in per cent.

On to `COc1cnc(/C=C/C(=O)c2ccccc2)cc1OC` [Ex. 1, 4,5-dimethoxy-2-(3-oxo-3-phenyl-1-propenyl)pyridine], for which the inhibition at 100 mg/kg in test [1] was 42%; in test [2] it was 4.6%; in test [4], -8%; in test [6] it was 1.6%. Moreover, the figures for the inhibition at 1 µM in test [3] and in test [5] were 95.3% and 87.9%, respectively. Also, the inhibition at 10 µM in test [5] is 97.5%. In addition, the inhibition at 0.1 µM in test [5] is 80.3%. Further, the inhibition at 0.01 µM in test [5] worked out at 59.9%.
Regarding `CCCCCC(=O)/C=C/c1cc(OCCCCCC(=O)OC)c(OC)cn1` [Ex. 15, Methyl 6-[5-methoxy-2-(3-oxo-1-octenyl)-4-pyridyloxy]hexanoate], the inhibition at 100 mg/kg in test [1] was 23.5%; in test [2], 4.6%; in test [4], -5.4%; in test [6], 9.9%. Further, the inhibition at 1 µM in test [3] was 79.2%; in test [5], 58.9%. Further, the inhibition at 10 µM in test [5] stood at 76.8%. Moreover, the inhibition at 0.1 µM in test [5] turned out to be 55.9%. The inhibition at 0.01 µM in test [5] was 49.1%.
On to `COc1cnc(/C=C/C(=O)c2ccccc2)cc1O` [Ex. 19, 4-hydroxy-5-methoxy-2-(3-oxo-3-phenyl-1-propenyl)-pyridine], for which the inhibition at 100 mg/kg in test [1] was 30.6%; in test [2], 0.9%; in test [4], 1.2%; in test [6], 8%. Besides, the inhibition at 1 µM in test [3] stood at 94.8%; in test [5], 98.1%. Also, the inhibition at 10 µM in test [5] is 106%. In test [5], the inhibition at 0.1 µM stood at 95.1%. In test [5], the inhibition at 0.01 µM was found to be 83.8%.
Regarding `O=C(/C=C/c1cc(O)c(O)cn1)c1ccccc1` [Ex. 20, 4,5-Dihydroxy-2-(3-oxo-3-phenyl-1-propenyl)pyridine], the inhibition at 100 mg/kg was 23.7% in test [1], 1.3% in test [2], -6.2% in test [4] and 7.4% in test [6]. The values for the inhibition at 1 µM in test [3] and in test [5] were 92.8% and 96.4%, respectively. Also, the inhibition at 10 µM in test [5] stood at 97.9%. Besides, the inhibition at 0.1 µM in test [5] came out at 90.6%. Besides, the inhibition at 0.01 µM in test [5] was 84%.
On to `COc1cnc(/C=C/C(=O)C2CCCCC2)cc1OC1CCCC1` [Ex. 74, 2-(3-Cyclohexyl-3-oxo-1-propenyl)-4-cyclopentyloxy-5-methoxypyridine], for which the inhibition at 1 µM in test [3] was found to be 77.9%. Further, in test [7], the inhibition at 10 µM turned out to be 81.6%, the inhibition at 1 µM worked out at 32.4%, the inhibition at 0.1 µM is 27.7% and the inhibition at 0.01 µM was found to be 5.9%.
For `CCOC(=O)CCCOc1cc(/C=C/C(=O)C2CCCCC2)ncc1OC` [Ex. 76, Ethyl 4-[2-(3-cyclohexyl-3-oxo-1-propenyl)-5-methoxy-4-pyridyloxy]butanoatehydrochloride], in that order: 91.2%, 75.3%, 70.5%, 69.1% and 67.7%.
On the same counts, the results for `CCOC(=O)CCCCOc1cc(/C=C/C(=O)C2CCCCC2)ncc1OC` [Ex. 78, Ethyl 5-[2-(3-cyclohexyl-3-oxo-1-propenyl)-5-methoxy-4-pyridyloxy]pentanoate hydrochloride] are 63.1%, 71.1%, 70.8%, 68.5% and 68.2%.
For `CCOC(=O)CCCCCOc1cc(/C=C/C(=O)c2c(OC)cccc2OC)ncc1OC` [Ex. 85, Ethyl 6-[5-methoxy-2-(3-(2,6-dimethoxyphenyl)-3-oxo-1-propenyl)-4-pyridyloxy]hexanoate hydrochloride], in that order: 75.7%, 86.3%, 77.4%, 77.1% and 73.9%.
Regarding `CCOC(=O)CCCOc1cc(/C=C/C(=O)c2ccc(OC)cc2OC)ncc1OC` [Ex. 91, Ethyl 4-[5-methoxy-2-(3-(2,4-dimethoxyphenyl)-3-oxo-1-propenyl)-4-pyridyloxy]butanoate hydrochloride], in test [3], the inhibition at 1 µM came out at 85.8%. In test [7], the inhibition at 10 µM turned out to be 93.4%, the inhibition at 1 µM was 62.3%, the inhibition at 0.1 µM worked out at 62.2% and the inhibition at 0.01 µM came out at 59.8%.
For `CCOC(=O)CCCCOc1cc(/C=C/C(=O)c2ccccc2OC)ncc1OC` [Ex. 95, Ethyl 5-[5-methoxy-2-(3-(2-methoxyphenyl)-3-oxo-1-propenyl)-4-pyridyloxy]pentanoate hydrochloride], in that order: 65.6%, 105%, 60.9%, 59.2% and 57.3%.
Take `CCOC(=O)CCCCCCCCCCCOc1cc(/C=C/C(=O)c2ccccc2OC)ncc1OC` [Ex. 97, Ethyl 12-[5-methoxy-2-(3-(2-methoxyphenyl)-3-oxo-1-propenyl)-4-pyridyloxy]dodecanoate hydrochloride]: the inhibition at 100 mg/kg in test [1] is 30.5%; in test [2], -9.5%; in test [4], 1.9%; in test [6], 5.6%. In addition, the inhibition at 1 µM in test [3] came out at 93.9%.
For the molecule `COC(=O)c1ccc(COc2cc(/C=C/C(=O)c3ccccc3OC)ncc2OC)cc1` [Ex. 99], the inhibition at 100 mg/kg in test [1] stood at 34.8%; in test [2], 2.7%; in test [4] it was 8.5%; in test [6], 6.1%. Besides, the inhibition at 1 µM in test [3] came out at 80.3%.
On the same counts, the results for `CCOC(=O)CCCCCOc1cc(/C=C/C(=O)c2ccsc2)ncc1OC` [Ex. 100, Ethyl 6-[5-methoxy-2-(3-oxo-3-(3-thienyl)-1-propenyl)-4-pyridyloxy]hexanoate hyd rochloride] are 23.9%, -5.1%, -9%, -4% and 82.6%.

For the origin of these results see patent publication US6046218A, “Pyridine derivative and medicament containing the same as an effective ingredient” (SS Pharmaceutical Co., Ltd., priority 1996, dated 2000).
